Source: article PMC11080515, “Novel anthraquinone amide derivatives as potential glyoxalase-I inhibitors” (Journal of Medicine and Life, 2024)
“And” between values parts separate entries of the source, which are not always exact repeats. Identical values can stand only once. Like-named read-outs stand apart in the source and are kept apart here.

Target: T1, Recombinant human Glo-I (rhGlo-I) (Homo sapiens, UniProt Q04760)
T1 construct: purchased R&D Systems Corporation
T1 sequence (Q04760 2-184 limits assumed): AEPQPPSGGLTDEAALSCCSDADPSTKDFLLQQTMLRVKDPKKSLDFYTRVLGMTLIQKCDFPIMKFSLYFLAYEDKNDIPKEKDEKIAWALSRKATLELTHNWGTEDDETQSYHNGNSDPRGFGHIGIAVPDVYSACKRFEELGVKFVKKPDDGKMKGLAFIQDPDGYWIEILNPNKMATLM
Assay: In vitro Glo-I enzyme inhibition assay (spectrophotometric, 240 nm)
Format: biochemical
Design: average inhibitory activity: dose or concentration left out as unconfirmed
Conditions: for % Inhibition / inhibition at 1.25 µM / inhibition at 2.5 µM / inhibition at 5 µM / inhibition at 10 µM / inhibition at 0.625 µM: single replicates
Procedure: Glo-I inhibitory action was evaluated following the methodology described by Al-Balas et al.. Recombinant human Glo-I (rhGlo-I) was procured from R&D Systems Corporation and […] in sterile deionized water at a precise concentration of 0.5 mg/ml before being reconstituted. The reconstituted rhGlo-I was stored at -70 °C until further use. Dimethyl sulfoxide (DMSO) was used to dissolve the test compounds to produce stock solutions with a 10 mM concentration. The assay buffer required for the experiment was made by mixing 0.1 M sodium phosphate monobasic solution with 0.1 M sodium phosphate dibasic solution, resulting in a pH range of 7.0–7.2. The reduced glutathione and methylglyoxal solutions were combined with a sufficient 0.1 M sodium phosphate assay buffer volume to create the substrate combination. In a cuvette, the assay buffer, substrate solution, and Glo-I enzyme were combined with the synthesized products at the required concentration. […] The maximum absorbance (γmax) was recorded at 240 nm.
In this study, the inhibitory activity of all synthesized compounds against the Glo-I enzyme was evaluated in vitro using recombinant human Glo-I obtained from R&D Systems Corporation. The methodology previously described was employed, which involved measuring the inhibition of Glo-I activity and substrate hydrolysis using a spectrophotometer at 240 nm. […] The activity profile of the tested compounds against Glo-I is depicted in Figure 12.

[1] = concentration 0.625 µM, 0.625 µM
[2] = from the % inhibition curve, 0.625-10 µM, read-out: Calculated IC50
[3] = rhGlo-I, 25 °C, pH 7.0-7.2, read-out: IC50

SMILES | % Inhibition [1] | inhibition at 1.25 µM (concentration 1.25 µM) [%] | % Inhibition (concentration 1.25 µM, 1.25 µM) | inhibition at 2.5 µM (concentration 2.5 µM) [%] | % Inhibition (concentration 2.5 µM, 2.5 µM) | inhibition at 5 µM (concentration 5 µM) [%] | % Inhibition (concentration 5 µM, 5 µM) | inhibition at 10 µM (concentration 10 µM) [%] | % Inhibition (concentration 10 µM, 10 µM) | IC50 [2] [µM] | IC50 [3] | average inhibitory activity [%] | inhibition at 0.625 µM (concentration 0.625 µM) [%]
O=C(/C=C/c1ccc(O)c(O)c1)Nc1cccc2c1C(=O)c1ccccc1C2=O [MQ1, (E)-3-(3,4-dihydroxyphenyl)-N-(9, 10-dioxo-9, 10-dihydroanthracen-1-yl) acrylamide] | 4.207% and 6.929% and 8.658% | 12 | 11.45% and 12.03% | 11.8 | 13.44% and 14.71% | 18.8 | 20.12% and 19.93% | 33.4 | 34.53% and 33.46% | 27.9 | 27.9 µM |  | 
O=C(/C=C/c1ccc(O)c(O)c1)Nc1ccc2c(c1)C(=O)c1ccccc1C2=O [MQ3, (E)-3-(3,4-dihydroxyphenyl)-N-(9, 10-dioxo-9, 10-dihydroanthracen-2-yl) acrylamide] | 28.34% and 22.6726% | 39.2 | 42.53% and 40.76% | 69.6 | 70.04% and 70.55% | 82.3 | 84.9% and 85.44% | 97.5 | 93.8% and 98.6% | 1.46 | 1.46 µM and 1.45 µM | 96.63 | 27.5
O=C(C=Cc1ccccc1)Nc1ccc2c(c1)C(=O)c1ccccc1C2=O [MQ4, N-(9, 10-dioxo-9, 10-dihydroanthracen-2-yl) cinnamamide] | 6.208% and 1.894% and 2.93% | 5.03 | 3.871% and 7.392% | 10.8 | 12.3% and 11.67% | 19.4 | 20.18% and 23.19% | 40.4 | 41.45% and 37.85% | 14.5 | 14.5 µM |  | 
O=C(C=Cc1ccccc1)Nc1cccc2c1C(=O)c1ccccc1C2=O [MQ5, N-(9, 10-dioxo-9, 10-dihydroanthracen-1-yl) cinnamamide] | 8.55% and 10.84% | 10.2 | 9.974% and 12.33% | 14.3 | 12.23% and 12.25% | 11.6 | 12.81% and 20.99% | 22 | 29% and 27.36% | 107 | 107 µM |  | 8.82
